Measured values taken from patent publication US6248718A, “Lesion-directed dry dosage forms of antibacterial agents for the treatment of acute mucosal infections of the oral cavity” (priority 1999, dated 2001).
Where “and” joins values, the source holds several entries; their conditions need not be identical. Equal values may be shown once.

Tests used:
[1] = Local concentrations of penicillin in saliva after topical medication of various doses (Example VII); type: in vivo, human; conditions: for Penicillin concentration in saliva / concentration at 0.1 h / concentration at 20 min / concentration at 40 min / concentration at 1 h / concentration at 2 h: studies 1-3; for concentration at 0.1 h / concentration at 20 min / concentration at 40 min / concentration at 1 h / concentration at 2 h: human, in vivo, topical or ocular; for concentration at 2 h: 120 min, after water at 60 min
Method: Five healthy adult volunteers, three men and two women, were selected for this study. The same volunteers were used as the subjects for three studies, and the results are summarized as follows.
On the day of study, two hours after breakfast, the volunteers were given a dose of 100 mg, 50 mg, 20 mg, 10 mg and 2 mg of USP grade penicillin G potassium powder respectively. The drug powder was placed in the right oral sulcus between the lower gum and the buccal mucosa to be dissolved in a minimum amount of saliva. This loculated pocket of saliva was not to be swallowed and was not to be further diluted by saliva from other parts of the mouth for one hour. At 6 minutes, 20 minutes, 40 minutes and 60 minutes after drug application, an aliquot of 0.01 ml was taken from this pocket of saliva and added into a test tube containing 10 ml of nutrient broth to give a 1,000 times dilution. After being mixed well, aliquots of the mixtures of saliva sample and nutrient broth were forced to pass through bacterial filters into sterile test tubes. Then 0.8 ml of each 1:1,000 diluted filtrate was pipetted and added to 3.2 ml of nutrient broth to make an additional 5 times dilution in a total volume of 4 ml. Two ml was pipetted from the latter to make a serial double dilution of saliva sample in 2 ml of nutrient broth, as described above under a, in 12 test tubes. The dilution factor for the saliva sample in test No. 1 was 1:5,000 and increased progressively to 1:10,240,000 in test tube No. 12.
After the 60-minute sample was taken, the subjects were given an 8 oz. glass of water to drink or to rinse his or her mouth, but refrained from drinking and eating for another hour. At the end of this last hour, i.e. about 2 hours after the drug application, another saliva sample of 0.2 ml was withdrawn and added to 3.8 ml of nutrient broth to make a 1:20 dilution and the mixture was forced to pass a bacterial filter into a sterile test tube. Two (2 ) ml of the filtrate was pipetted from this 1:20 diluted mixture for antibiotic activity assays.
(§1) Each filtered mixture in test tube was inoculated with 0.1 ml of a 1:1,000 dilution of a 12 hour broth culture of Staphylococcus aureus ATCC 29213.
(§2) A row of 6 test tubes each containing 2 ml of nutrient broth with decreasing concentrations of penicillin G potassium from 6.2 to 0.16 mcg/ml, using a serial double dilution method described in a., was prepared and similarly inoculated with 0.1 ml broth culture of Staphylococcus aureus ATCC 29213 as the standard.
(§3) All test tubes were incubated at 37° C. for 18 hours and observed for bacterial growth against an inoculated broth containing neither antibiotic nor saliva samples.
The test tube of the highest number with the highest dilution factor of saliva in nutrient broth in which no bacterial growth was observed was interpreted as containing an equivalent of penicillin G potassium at 0.75 mcg/ml. Using the dilution factors, it was calculated that, after topical application of 2 to 100 mg of penicillin G potassium dry powder, the concentrations of penicillin G potassium in the saliva at the site of medication within the first hour and one hour after purging the mouth with water were as follows.

[2] = Topical dry dosage treatment of minor aphthous ulcers, gingivitis and periodontal infections; type: in vivo, human; conditions: 50 mg dry dosage form, four times a day
Excerpt: The administration of the medicament depends upon the type of infection to be treated and the type and dosage of the antibacterial agent used. The appropriate antibacterial agent, dosage and treatment regimen can readily be determined by someone having ordinary skill in this art. […] Thorough tooth cleaning is advised prior to introduction of the medicament to an infected area.

[3] = system: Staphylococcus aureus ATCC 29213; assay: MIC for standard strain used in saliva antibiotic assay (Examples VII-IX); type: cell-based; conditions: Staphylococcus aureus, ATCC29213; nutrient broth, 37° C., 18 hours
Method: as §1, §2, §3
In this study, the drug powder was suspended in one teaspoonful of water and swallowed by the test subjects two hours after breakfast, followed by drinking an 8 Oz. glass of water. The test subjects refrained from drinking or eating for the next three hours. Six samples of saliva were collected from each subject at 30-minute intervals in succession in the next three hours. An aliquot of 0.2 ml from each saliva sample was transferred to 3.8 ml of nutrient broth. The mixture of the latter was forced to pass a bacterial filter. Two (2) ml of the bacteria-free filtrate was pipetted out into a sterile test tube and inoculated with 0.1 ml of a 1:1,000 dilution of a 12 hours broth culture of Staphylococcus aureus ATCC 29213 and incubated at 37° C. for 18 hours. […]

## CC1(C)S[C@@H]2[C@H](NC(=O)Cc3ccccc3)C(=O)N2[C@H]1C(=O)O [penicillin G potassium]
[1]; 2 mg topical powder, 20 min
  Penicillin concentration in saliva: below 3.75 mg/ml
  concentration at 20 min: 7500 µg/mL
[1]; 2 mg topical powder, 20 min, listed as Penicillin G Potassium
  Penicillin concentration in saliva: < 3.75 mg/mL
[1]; 2 mg topical powder, 40 min
  Penicillin concentration in saliva: < 3.75 mg/mL
  concentration at 40 min: 3750 µg/mL
[1]; 2 mg topical powder, 60 min
  Penicillin concentration in saliva: < 3.75 mg/mL
  concentration at 1 h: < 3750 µg/mL
[1]; 10 mg topical powder, 6 min
  Penicillin concentration in saliva: 60 mg/mL
  concentration at 0.1 h: 60000 µg/mL
[1]; 10 mg topical powder, 60 min
  Penicillin concentration in saliva: 3.75 mg/mL and 7.5 mg/mL
  concentration at 1 h: 3750 µg/mL
[1]; 20 mg topical powder, 6 min
  Penicillin concentration in saliva: 240 mg/mL and 120 mg/mL
  concentration at 0.1 h: 120000 µg/mL
[1]; 20 mg topical powder, 20 min
  Penicillin concentration in saliva: 60 mg/mL
  concentration at 20 min: 60000 µg/mL
[1]; 20 mg topical powder, 60 min
  Penicillin concentration in saliva: 7.5 mg/mL
  concentration at 1 h: 7500 µg/mL
[1]; 50 mg topical powder, 6 min
  Penicillin concentration in saliva: 240 mg/mL and 480 mg/mL
  concentration at 0.1 h: 480000 µg/mL
[1]; 50 mg topical powder, 20 min
  Penicillin concentration in saliva: 120 mg/mL and 240 mg/mL
  concentration at 20 min: 240000 µg/mL
[1]; 50 mg topical powder, 60 min
  Penicillin concentration in saliva: 7.5 mg/mL
  concentration at 1 h: 7500 µg/mL
[1]; 100 mg topical powder, 6 min
  Penicillin concentration in saliva: 480 mg/mL
  concentration at 0.1 h: 960000 µg/mL
[1]; 100 mg topical powder, 20 min
  Penicillin concentration in saliva: 240 mg/mL and 120 mg/mL
  concentration at 20 min: 240000 µg/mL
[1]; 100 mg topical powder, 40 min
  Penicillin concentration in saliva: 60 mg/mL
  concentration at 40 min: 30000 µg/mL
[1]; 100 mg topical powder, 60 min
  Penicillin concentration in saliva: 30 mg/mL and 15 mg/mL
  concentration at 1 h: 15000 µg/mL
[1]; doses of 2 mg to 100 mg powder
  initial peak concentrations at the site of medication: 7.5 to 960 mg/mL
[1]; dry powder
  dose required to maintain minimum 3.75 mg/ml in saliva for one hour: at least 10 mg
[1]; 2 mg topical powder, 6 min
  concentration at 0.1 h: 15000 µg/mL
[1]; 2 mg topical powder
  concentration at 2 h: < 15 µg/mL
[1]; 10 mg topical powder, 20 min
  concentration at 20 min: 30000 µg/mL
[1]; 10 mg topical powder, 40 min
  concentration at 40 min: 15000 µg/mL
[1]; 10 mg topical powder
  concentration at 2 h: < 15 µg/mL
[1]; 20 mg topical powder, 40 min
  concentration at 40 min: 7500 µg/mL
[1]; 20 mg topical powder
  concentration at 2 h: < 15 µg/mL
[1]; 50 mg topical powder, 40 min
  concentration at 40 min: 30000 µg/mL
[1]; 50 mg topical powder
  concentration at 2 h: < 15 µg/mL
[1]; 100 mg topical powder
  concentration at 2 h: < 15 µg/mL
[1]; one hour after 8 oz. of fluid, all doses
  concentration in saliva after drinking: < 15 µg/mL
[2]
  patients with complete relief of pains within about 48 hours: over 90%
  time to complete relief of pains: ≤ 48 h
[3]
  MIC: 0.75 µg/mL
